{"source": "patent US20240325330A1", "about": "“NEW METHOD TO TREAT ACIDOSIS RELATED DISEASES WITH ACETOACETATE” (INSTITUT NATIONAL DE LA SANTÉ ET DE LA RECHERCHE MÉDICALE, priority 2021, published 2024)", "key": {"[1]": {"system": "human monocytes differentiated into macrophages under lactic acidosis (LA-Mφ)", "test": "Mitochondrial membrane potential (MitoTracker Green / Deep Red flow cytometry) in macrophages under lactic acidosis", "type": "cell-based", "conditions": "5 mM AcAc, 10 mM lactic acid (pHe 6.5), LA-Mφ+AcAc vs LA alone; data not shown", "procedure": "Peripheral blood mononuclear cells (PBMC) were obtained from healthy human volunteers (Blood collection center, Angers, France; agreement ANG-2017-01) by standard density-gradient centrifugation on lymphocyte separation medium (Eurobio, Courtaboeuf, France). CD14+ monocytes were then isolated by positive magnetic cell-sorting (Miltenyi Biotec, Bergisch Gladbach, Germany). Monocytes (1×10^6 cells/mL) were cultured in complete medium (CM) consisting of RPMI 1640 (Lonza, Verviers, Belgium) supplemented with 10% fetal calf serum (FCS) (Eurobio), 2 mM L-glutamine, 1 mM sodium pyruvate, 0.1 mM non-essential amino acids, 10 mM HEPES, 100 U/mL penicillin and 100 μg/mL streptomycin (all from Lonza) in the presence of 50 ng/mL GM-CSF (R&D Systems, Minneapolis, MN). […]\nMitochondrial membrane potential was assessed by incubating with 10 nM MitoTracker Green and 5 nM MitoTracker DeepRed (Thermo Fisher Scientific, Waltham, MA) in PBS containing 1% (w/v) BSA in PBS (PBS/BSA) at 37° C. for 15 min. […] Flow cytometry data were acquired with a FACSCanto II flow cytometer (BD Biosciences, San Jose, CA) and analyzed with FlowJo software (Tree Star, Ashland, OR)."}, "[2]": {"system": "human monocytes differentiated into macrophages under lactic acidosis (LA-Mφ)", "test": "Mitochondrial mass (mtDNA copy number) and NRF2 mRNA expression", "type": "cell-based", "conditions": "data not shown", "excerpt": "(§1) Peripheral blood mononuclear cells (PBMC) were obtained from healthy human volunteers (Blood collection center, Angers, France; agreement ANG-2017-01) by standard density-gradient centrifugation on lymphocyte separation medium (Eurobio, Courtaboeuf, France). CD14+ monocytes were then isolated by positive magnetic cell-sorting (Miltenyi Biotec, Bergisch Gladbach, Germany). […]\nCells were lysed in Trizol reagent (Life Technologies, Thermo Fisher Scientific), and total RNA was extracted with the RNeasy Micro kit (Qiagen, Hilden, Germany) and then reverse-transcribed with the Superscript II reverse transcriptase (Life Technologies). Levels of mRNA encoding the indicated proteins were then analyzed by subjecting the cDNA obtained by reverse transcription to qPCR. Relative quantification was performed by the 2^−ΔΔCT method, with RPS18, EF1A, TBP, RPL13A and PPIA as references. Results are expressed as relative mRNA levels.\nMitochondrial DNA (mtDNA) content was determined by qPCR with primers specific for the ND4 and COX1 genes, and was weighted according to nuclear DNA levels, which were quantified by analyzing […], as previously described (23)."}, "[3]": {"system": "human monocytes exposed to lactic acid", "test": "Intracellular pH (SNARF probe, flow cytometry)", "type": "cell-based", "conditions": "10 mM lactic acid with 5 mM AcAc; FIG. 2E", "procedure": "as §1\nIntracellular pH (pHi) was measured by incubating 3×10^5 Mφ with 500 nM pH-sensitive dye carboxy-SNARF-AM (Life Technologies, Carlsbad, CA) in PBS/BSA at 37° C. for 20 min and then performing flow cytometry analysis. We determined pHi as the ratio of fluorescence intensities at two emission wavelengths (585/42 nm and 700/60 nm PMTs). SNARF fluorescence in macrophages was calibrated with a high-potassium buffer (39.6 mM NaCl, 120 mM KCl, 2.3 mM CaCl2), 1 mM MgCl2, 5 mM HEPES, 10 mM glucose) at pH values of 6.5 to 8, in the presence of 10 μM nigericin (Sigma-Aldrich); nigericin exchanges external potassium with internal protons to equilibrate extracellular and intracellular pH."}, "[4]": {"system": "PBMC from septic shock patients", "test": "Mitochondrial depolarization in cultured PBMC from sepsis patients", "type": "cell-based, human", "conditions": "24 h, medium with 5 mM AcAc, FIG. 4B", "procedure": "Mitochondrial membrane potential was assessed by incubating with 10 nM MitoTracker Green and 5 nM MitoTracker DeepRed (Thermo Fisher Scientific, Waltham, MA) in PBS containing 1% (w/v) BSA in PBS (PBS/BSA) at 37° C. for 15 min. Cells were washed and incubated with 0.5 μg/mL DAPI to exclude dead cells. Flow cytometry data were acquired with a FACSCanto II flow cytometer (BD Biosciences, San Jose, CA) and analyzed with FlowJo software (Tree Star, Ashland, OR).\nPeripheral blood mononuclear cells (PBMC) from septic patients and healthy subjects were purified by standard density-gradient centrifugation on lymphocyte separation medium (Eurobio, Courtaboeuf, France). PBMC were cultured for 24 h in a medium consisting of RPMI 1640 medium with L-glutamine and without glucose (Lonza, Verviers, Belgium) and supplemented with 6% FCS (Eurobio), 3% autologous plasma, 0.5 g/L glucose, 100 U/mL penicillin and 100 μg/mL streptomycin (all from Lonza) in the presence of 2 ng/mL GM-CSF (R&D Systems). In some experiments, the culture medium was supplemented with 5 mM AcAc or adjusted to 4 g/L glucose. After 24 h culture, the percentage of cells with depolarized mitochondria was assessed as described above. After 3 days of culture, intracellular ATP has been quantified as described above."}, "[5]": {"system": "PBMC from septic shock patients", "test": "Intracellular ATP in PBMC from septic shock patients", "type": "cell-based, human", "conditions": "5 mM AcAc, normalized on 0.5 g/L glucose, FIG. 1B", "procedure": "The intracellular levels of ATP in whole-cell lysates were determined with enzymatic assays (Abcam, Cambridge, UK), according to the manufacturer's instructions. ATP was quantified in (i) macrophages generated in the absence (Mφ) or presence of lactic acid (LA-Mφ) or of lactic acid and acetoacetate (LA-Mφ+AcAc), (ii) macrophages with or without depolarized mitochondria (“Depol” and “Pol” populations, respectively) isolated from day 3 LA-Mφ by flow cytometry using MitoTracker Green and MitoTracker Deep Red probes (purity>99%) and, (iii) PBMC isolated from septic shock patients (n=3) were cultured for 24 h in a medium containing 0.5 g/L glucose, supplemented with 5 mM of acetoacetate (AcAc) or with 2 g/L of glucose (Glc). Results are normalized on the condition 0.5 g/L glucose (None).\nPeripheral blood mononuclear cells (PBMC) from septic patients and healthy subjects were purified by standard density-gradient centrifugation on lymphocyte separation medium (Eurobio, Courtaboeuf, France). […] After 24 h culture, the percentage of cells with depolarized mitochondria was assessed as described above. After 3 days of culture, intracellular ATP has been quantified as described above."}}}
{"smiles": "CC(=O)CC(=O)[O-].[Li+]", "note": "[AcAc, lithium acetoacetate]", "values": [{"measurement": "mitochondrial depolarization", "setting": "[1]", "result": "did not exhibit the mitochondrial depolarization"}, {"measurement": "mitochondrial mass", "setting": "[2]; LA-Mφ+AcAc (5 mM AcAc, 10 mM lactic acid)", "result": "no reduction of the mitochondrial mass"}, {"measurement": "expression of NRF2", "setting": "[2]; LA-Mφ+AcAc relative to LA-Mφ", "result": "tend to increase"}, {"measurement": "immediate short-term decrease in pHi induced by extracellular acidosis", "setting": "[3]", "result": "remained detectable"}, {"measurement": "percentage of cells with depolarized mitochondria", "setting": "[4]", "result": "significantly reduced"}, {"measurement": "levels of intracellular ATP", "setting": "[5]", "result": "increased"}]}
